Data taken from patent publication US10570156B2, “Substituted imidazo[1,2-a]pyridines as PDE-10 inhibitors” (SUNOVION PHARMACEUTICALS INC., priority 2011, dated 2020).

Biological target: recombinant human PDE-10 enzyme (Homo sapiens (Human), UniProt Q9Y233)
Experiment: human PDE-10 inhibition assay (IMAP PDE Fluorescence Polarization enzyme assay)
Format: biochemical
Settings: Fluorescein-labeled cAMP/cGMP substrate, 40-minute incubation at 37° C.
Description: In one embodiment, the compounds provided herein were assayed for their ability to inhibit human PDE-10A. In one embodiment, the activities of the compounds were determined using the Molecular Devices IMAP PDE Fluorescence Polarization assay using recombinant human PDE-10 enzyme expressed in a baculoviral system. Briefly, 10 μL of a compound (0.2 nM-20 μM) was added to either a 96-well half area black plate or a 384-well black plate along with 10 μL of Fluorescein-labeled cAMP/cGMP substrate as per manufacturer's instructions and 10 μL of PDE enzyme (activity 0.1 U). Following a 40-minute incubation at 37° C., 60 μL of IMAP binding reagent was added. The plate was then read on a Perkin Elmer Victor (480-535 nm). The data was analyzed using Prism Software (GraphPad Inc, San Diego, Calif.).

recombinant human PDE-10 enzyme, sequence (Q9Y233 whole entry): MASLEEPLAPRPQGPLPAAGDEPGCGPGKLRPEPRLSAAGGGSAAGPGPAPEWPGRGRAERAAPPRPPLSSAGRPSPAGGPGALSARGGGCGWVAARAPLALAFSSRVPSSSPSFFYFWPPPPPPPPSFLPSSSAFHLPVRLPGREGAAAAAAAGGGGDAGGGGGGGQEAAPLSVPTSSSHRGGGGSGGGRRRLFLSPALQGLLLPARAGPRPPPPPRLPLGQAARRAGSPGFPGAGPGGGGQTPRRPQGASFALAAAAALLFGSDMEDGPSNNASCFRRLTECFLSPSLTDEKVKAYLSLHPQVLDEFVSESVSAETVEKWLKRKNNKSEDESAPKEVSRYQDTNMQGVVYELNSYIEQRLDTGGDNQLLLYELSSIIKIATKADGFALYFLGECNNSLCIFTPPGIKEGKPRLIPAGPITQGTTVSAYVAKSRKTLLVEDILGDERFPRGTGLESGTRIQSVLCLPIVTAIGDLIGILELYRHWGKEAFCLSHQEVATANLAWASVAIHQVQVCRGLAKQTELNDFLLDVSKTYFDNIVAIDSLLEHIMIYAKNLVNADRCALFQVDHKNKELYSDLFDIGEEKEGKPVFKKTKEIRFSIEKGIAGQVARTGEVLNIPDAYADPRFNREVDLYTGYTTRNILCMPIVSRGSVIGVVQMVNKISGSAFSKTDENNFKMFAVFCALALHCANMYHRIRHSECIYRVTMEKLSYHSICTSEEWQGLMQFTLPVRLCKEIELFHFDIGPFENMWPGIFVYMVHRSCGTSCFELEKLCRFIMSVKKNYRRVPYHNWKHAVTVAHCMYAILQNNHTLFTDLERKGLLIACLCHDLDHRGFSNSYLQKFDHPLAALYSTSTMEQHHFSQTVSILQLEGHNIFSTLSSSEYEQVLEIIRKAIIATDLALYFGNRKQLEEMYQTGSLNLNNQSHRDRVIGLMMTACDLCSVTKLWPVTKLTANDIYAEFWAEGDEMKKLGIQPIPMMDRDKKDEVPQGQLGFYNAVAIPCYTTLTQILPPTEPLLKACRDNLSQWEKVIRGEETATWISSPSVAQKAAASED

IC50: > 500 nM
Structure (SMILES): Cc1ncc(C)n2nc(CCc3nc4c(C)ncc(C)n4n3)nc12 [Compound 2]
